Assay results: US20210330611A1, “THERAPY FOR NEUROLOGICAL DISEASES/DISORDERS” (priority 2020, published 2021)
pIC50: −log10 of the molar value. Where a name gives a salt, the structure may show the parent alone. Read-outs that look alike come from different tables or passages of the source.

Legend:
[1] = tested on: primary rat microglia; details: rat
[2] = tested on: LPS-induced microglia activation; assay: Image-based assay of LPS-induced microglia activation (HTS and dose response); format: cell-based, rat; details: Rattus norvegicus, Microglia; for inhibition at 10 µM: read-out: LPS % inhibition
[3] = tested on: fibrin-induced microglia activation; assay: Image-based assay of fibrin-induced microglia activation (HTS and dose response); format: cell-based, rat; details: for pIC50 / IC50 / inhibition at 10 µM: Rattus norvegicus, Microglia; for inhibition at 10 µM: read-out: Fibrin % inhibition
[4] = in vitro; details: rat
[5] = tested on: primary rat microglia; assay: Cell toxicity (dead cells, size <150 μm2) in LPS assay; details: read-out: Cell Toxicity IC50 (uM) [LPS assay]; LPS assay
[6] = in vitro; details: rat, Cell Toxicity IC50 (uM) [cFib assay]
[7] = tested on: fibrin- and LPS-induced microglia activation; assay: cells; format: cell-based, rat; details: for inhibition at 10 µM: Rattus norvegicus; for Activity: Table 7, fib = fibrin, LPS, tox = toxicity
[8] = tested on: primary rat microglia; details: rat; remark: listed apart in the source
[9] = 48 h, Table 1, dose response 0.001-20 μM, triplicates, primary rat microglia, 48 h, read-out: LPS IC50
[10] = 48 h, primary microglia HTS, LPS stimulation, increased cell size (>800 μm^2) as marker of activation
[11] = LPS-induced microglia activation, dose response, read-out: LPS IC50 (uM) (Suppl. Table 7)
[12] = Table 3, read-out: LPS IC50 (uM) (Suppl. Table 7)
[13] = dose response, LPS-induced microglia activation, read-out: LPS IC50
[14] = 48 h, Table 1, dose response 0.001-20 μM, triplicates, primary rat microglia, 48 h, read-out: Fibrin IC50
[15] = Table 3, read-out: Fibrin IC50 (uM) (Suppl. Table 7)
[16] = dose response, fibrin-induced microglia activation, read-out: Fibrin IC50
[17] = fibrin-induced microglia activation, dose response, read-out: Fibrin IC50 (uM) (Suppl. Table 7)
[18] = HTS of 1907 compounds, quadrant by fibrin and LPS inhibition
[19] = Microglia, Table 3, read-out: Cherry-picked Hit (Suppl. Table 7)
[20] = Microglia, HTS hit classification, read-out: Hit
[21] = primary microglia HTS, fibrin stimulation, increased cell size (>800 μm^2) as marker of activation
[22] = hit classification in microglia HTS, read-out: Cherry-picked Hit (Suppl. Table 7)
[23] = quadrant by fibrin and LPS inhibition in HTS of 1907 compounds
[24] = read-out: LPS IC50 (uM) (Suppl. Table 7)
[25] = read-out: Fibrin IC50 (uM) (Suppl. Table 7)
[26] = Microglia, read-out: Cherry-picked Hit (Suppl. Table 7)
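For Fibrin % cell toxicity in this document: share of dead cells sized under 150 µm2 at 10 µM in fibrin-stimulated microglia HTS.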

Row | Compound | Fibrin % cell toxicity [1] | pIC50 [2, 9] | inhibition at 10 µM [2, 10] | IC50 [2, 11] | pIC50 [2, 13] | Fibrin Selectivity [3] | Fibrin Selectivity (LOG10) [3] | pIC50 [3, 14] | pIC50 [3, 16] | IC50 [3, 17] | pIC50 [4] | IC50 ([6]; cFib assay) | Quadrant (FIG. 5b) [7, 18] | inhibition at 10 µM [7, 20] | Quadrant (FIG. 5b) ([7]; Table 1, screen at 10 μM) | inhibition at 10 µM [3, 21] | inhibition at 10 µM [7, 22] | Quadrant (FIG. 5b) [7, 23] | LPS % cell toxicity [8] | IC50 [6] | other results
1 | CC(=O)O[C@]1(C(C)=O)CC[C@H]2[C@@H]3C=C(C)C4=CC(=O)CC[C@]4(C)[C@H]3CC[C@@]21C [Megestrol acetate, reference compound] | 1% | < 4.70 | 24% | > 20 µM | < 4.70 | 4 | 0.63 | 5.30 | 5.30 | 5 µM | < 4.70 | > 20 µM | Q3 | > 50% | Q3 |  |  |  |  |  | IC50 [2, 12]: > 20 µM; IC50 [3, 15]: 5 µM; IC50 [5]: > 20 µM; IC50 ([6]; Table 3): > 20 µM; inhibition at 10 µM [7, 19]: > 50%; Quadrant (FIG. 5b) ([7]; Table 3, screen at 10 μM): Q3
2 | O=c1[nH]c2ccccc2n1C1CCN(CCCC(c2ccc(F)cc2)c2ccc(F)cc2)CC1 [Pimozide, reference compound] | 2% | 4.74 | 45% | 18 µM | 4.74 |  |  | < 4.70 | < 4.70 | > 20 µM | < 4.70 | > 20 µM | Q3 | > 50% | Q3 | 70% | > 50% | Q3 | 0% |  | 
3 | CO[C@H]1C[C@@H]2CC[C@@H](C)[C@@](O)(O2)C(=O)C(=O)N2CCCC[C@H]2C(=O)O[C@H]([C@H](C)C[C@@H]2CC[C@@H](O)[C@H](OC)C2)CC(=O)[C@H](C)/C=C(\C)[C@@H](O)[C@@H](OC)C(=O)[C@H](C)C[C@H](C)/C=C/C=C/C=C/1C [Rapamycin, reference compound] | 3% | > 9.00 | 53% | < 0.001 µM | > 9.00 |  |  | > 9.00 | > 9.00 | < 0.001 µM | < 4.70 | > 20 µM | Q2 | > 50% | Q2 | 86% | > 50% | Q2 | 2% |  | 
4 | C#CCN[C@@H]1CCc2ccccc21 [Rasagiline, reference compound] | 1% |  |  |  |  |  |  |  |  |  | < 4.70 |  |  |  |  |  |  |  | 1% | > 20 µM | inhibition at 10 µM ([2]; 48 h): 28%; pIC50 ([2]; 48 h, read-out: LPS IC50): < 4.70; IC50 ([2]; read-out: LPS IC50 (uM)): > 20 µM; IC50 [2, 24]: > 20 µM; pIC50 ([3]; 48 h, read-out: Fibrin IC50): 4.70; inhibition at 10 µM [3]: 76%; IC50 ([3]; read-out: Fibrin IC50 (uM)): 20 µM; IC50 [3, 25]: 20 µM; Quadrant (FIG. 5b) [7]: Q3; inhibition at 10 µM [7, 26]: > 50%; inhibition at 10 µM ([7]; Microglia, read-out: Hit): > 50%
5 | OCc1cc(C(O)CNCCCCCCOCCCCc2ccccc2)ccc1O (stereo not shown) [Salmeterol, reference compound] | 1% |  |  |  |  | 10 | 1.02 |  |  |  | < 4.70 |  |  |  |  |  |  |  | 1% | > 20 µM | inhibition at 10 µM ([2]; 48 h): 29%; pIC50 ([2]; 48 h, read-out: LPS IC50): 4.85; IC50 ([2]; read-out: LPS IC50 (uM)): 14 µM; IC50 [2, 24]: 14 µM; pIC50 ([3]; 48 h, read-out: Fibrin IC50): 6.00; inhibition at 10 µM [3]: 56%; IC50 ([3]; read-out: Fibrin IC50 (uM)): 1 µM; IC50 [3, 25]: 1 µM; Quadrant (FIG. 5b) [7]: Q3; inhibition at 10 µM [7, 26]: > 50%; inhibition at 10 µM ([7]; Microglia, read-out: Hit): > 50%
6 | CC(C)(C)NC(=O)[C@@H]1C[C@@H]2CCCC[C@@H]2CN1C[C@@H](O)[C@H](Cc1ccccc1)NC(=O)[C@H](CC(N)=O)NC(=O)c1ccc2ccccc2n1 [Saquinavir, reference compound] | 1% | < 4.70 | 56% | > 20 µM | < 4.70 |  |  | < 4.70 | < 4.70 | > 20 µM | < 4.70 | > 20 µM | Q2 | > 50% | Q2 | 51% | > 50% | Q2 | 1% |  | 
7 | CO[C@H]1C[C@H](O[C@@H]2/C(C)=C/C[C@@H]3C[C@@H](C[C@]4(CC[C@H](C)[C@@H](C5CCCCC5)O4)O3)OC(=O)[C@@H]3C=C(C)/C(=N/O)[C@H]4OC/C(=C\C=C\[C@@H]2C)[C@]43O)O[C@@H](C)[C@@H]1O [Selamectin, reference compound] | 1% |  |  |  |  | 3 | 0.51 |  |  |  | < 4.70 |  |  |  |  |  |  |  | 1% | > 20 µM | inhibition at 10 µM ([2]; 48 h): 42%; pIC50 ([2]; 48 h, read-out: LPS IC50): < 4.70; IC50 ([2]; read-out: LPS IC50 (uM)): > 20 µM; IC50 [2, 24]: > 20 µM; pIC50 ([3]; 48 h, read-out: Fibrin IC50): 5.22; inhibition at 10 µM [3]: 51%; IC50 ([3]; read-out: Fibrin IC50 (uM)): 6 µM; IC50 [3, 25]: 6 µM; Quadrant (FIG. 5b) [7]: Q3; inhibition at 10 µM [7, 26]: > 50%; inhibition at 10 µM ([7]; Microglia, read-out: Hit): > 50%
8 | COc1cc([C@@H]2c3cc4c(cc3[C@@H](O[C@@H]3O[C@@H]5CO[C@@H](c6cccs6)O[C@H]5[C@H](O)[C@H]3O)[C@H]3COC(=O)[C@H]23)OCO4)cc(OC)c1O [Teniposide, reference compound] | 2% | 6.00 | 100% | 1 µM | 6.00 |  |  | 5.70 | 5.70 | 2 µM | 5.40 | 20 µM | Q2 | > 50% | Q2 | 91% | > 50% | Q2 | 18% |  | pIC50 ([2]; Table 7, read-out: LPS_IC50): 6.62; pIC50 ([3]; Table 7, read-out: fib_IC50): 6.09; Quadrant (FIG. 5b) ([7]; Table 2, screen at 10 μM): Q2; Activity [7]: fib/LPS
9 | CC(=O)OCC(=O)[C@@]1(O)[C@H](OC(C)=O)C[C@H]2[C@@H]3CCC4=CC(=O)C=C[C@]4(C)[C@@]3(F)[C@@H](O)C[C@@]21C [Triamcinolone diacetate, reference compound] | 2% | 6.10 | 100% | 0.8 µM | 6.10 | 17 | 1.23 | 7.40 | 7.40 | 0.04 µM | < 4.70 |  | Q2 | > 50% | Q2 | 110% |  | Q2 | 5% | > 20 µM | IC50 [2, 12]: 0.8 µM; pIC50 ([2]; Table 7, read-out: LPS_IC50): 8.70; IC50 [3, 15]: 0.04 µM; pIC50 ([3]; Table 7, read-out: fib_IC50): 8.70; inhibition at 10 µM [7, 19]: > 50%; Quadrant (FIG. 5b) ([7]; Table 2, screen at 10 μM): Q2; Quadrant (FIG. 5b) ([7]; Table 3, screen at 10 μM): Q2; Activity [7]: fib/LPS
10 | CN1CCN(CCCN2c3ccccc3Sc3ccc(C(F)(F)F)cc32)CC1 [Trifluoperazine dihydrochloride, reference compound] | 2% | 5.22 | 26% | 6 µM | 5.22 |  |  | 4.92 | 4.92 | 12 µM | 4.92 | > 20 µM | Q3 | > 50% | Q3 | 69% | > 50% | Q3 | 0% |  | 
11 | CC(CN(C)C)CN1c2ccccc2CCc2ccccc21 (stereo not shown) [Trimipramine maleate, reference compound] | 1% | 5.30 | 92% | 5 µM | 5.30 |  |  | 5.15 | 5.15 | 7 µM | 4.92 | > 20 µM | Q2 | > 50% | Q2 | 52% | > 50% | Q2 | 5% |  | 
